# Assays:
# [1] = target: T1, native aSyn aggregates in A30P transgenic mouse brain sections (Homo sapiens, UniProt P37840, A30P); experiment: aSyn in vitro displacement assay ([3H]Example-3 autoradiography); format: binding, mutant human aSyn gene); settings: 1 μM compound; 3 nM [3H]Example-3; A30P transgenic mouse brain sections; read-out: PCT_INHIB A30P @ 1 μM (% displacement of [3H]Example-3)
# T1 construct: from tissue; host or cells: brain sections (midbrain and pons as ROI) of A30P transgenic mice, line B6.D2-Tg(Thy1-SNCA*30P)31Pjk
# [2] = target: T2, native Aβ aggregates in human AD brain tissue sections (Homo sapiens, UniProt P05067); experiment: Aβ in vitro displacement assay (selectivity counterscreen, [3H]Example 3 autoradiography); format: binding; settings: 1 μM compound; 3 nM [3H]Example 3; human AD brain sections; read-out: sel. counterscreen PCT_INHIB AD @ 1 μM (% displacement of [3H]Example 3)
# T2 construct: native Aβ aggregates in human AD brain tissue samples; from tissue; host or cells: human AD brain tissue sections
# T2 sequence (P05067 672-713 limits assumed): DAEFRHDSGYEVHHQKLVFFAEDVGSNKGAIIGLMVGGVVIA
inhibition at 1 µM [1] [%],inhibition at 1 µM [2] [%],Compound
88,92,"Cc1cccc(C(=O)Nc2cnc(N3CCN(c4ccccn4)CC3)nc2)c1 [Example 64, 3-Methyl-N-(2-(4-(pyridin-2-yl)piperazin-1-yl)pyrimidin-5-yl)benzamide]"
80,86,"COc1ccc(C(=O)Nc2cnc(N3CCN(c4ccccn4)CC3)nc2)c(C)c1 [Example 72, 4-Methoxy-2-methyl-N-(2-(4-(pyridin-2-yl)piperazin-1-yl)pyrimidin-5-yl)benzamide]"
88,91,"CN1CCN(c2ccc(C(=O)Nc3cnc(N4CCN(c5ccccn5)CC4)nc3)cc2)CC1 [Example 73, 4-(4-Methylpiperazin-1-yl)-N-(2-(4-(pyridin-2-yl)piperazin-1-yl)pyrimidin-5-yl)benzamide]"
93,95,"Cc1ccc(C(=O)Nc2cnc(N3CCN(c4ccccn4)CC3)nc2)cc1 [Example 74, 4-Methyl-N-(2-(4-(pyridin-2-yl)piperazin-1-yl)pyrimidin-5-yl)benzamide]"
94,91,"COc1ccc(C(=O)Nc2ccc(N3CCN(c4ccccn4)CC3)cn2)nc1 [Example 76, 5-Methoxy-N-(5-(4-(pyridin-2-yl)piperazin-1-yl)pyridin-2-yl)picolinamide]"
98,94,"COc1ccc(C(=O)Nc2ccc(N3CCN(c4ccccn4)CC3)cc2)nc1 [Example 78, 5-Methoxy-N-(4-(4-(pyridin-2-yl)piperazin-1-yl)phenyl)picolinamide]"
95,93,"COc1ccc(C(=O)Nc2cnc(N3CCN(c4ccccn4)CC3)nc2)nc1 [Example 79, 5-Methoxy-N-(2-(4-(pyridin-2-yl)piperazin-1-yl)pyrimidin-5-yl)picolinamide]"
90,94,"COc1ccc(C(=O)Nc2ccc(N3CCN(c4ccccn4)CC3)cn2)c(C)c1 [Example 80, 4-Methoxy-2-methyl-N-[5-(4-pyridin-2-ylpiperazin-1-yl)pyridin-2-yl]benzamide]"
90,92,"CN1CCN(c2ccc(C(=O)Nc3ccc(N4CCN(c5ccccn5)CC4)cn3)cc2)CC1 [Example 81, 4-(4-Methylpiperazin-1-yl)-N-[5-(4-pyridin-2-ylpiperazin-1-yl)pyridin-2-yl]benzamide]"
88,100,"COc1ccc(C(=O)Nc2cnc(N3CCN(c4ccccn4)CC3)cn2)c(F)c1 [Example 84, 2-Fluoro-4-methoxy-N-(5-(4-(pyridin-2-yl)piperazin-1-yl)pyrazin-2-yl)benzamide]"
98,107,"COc1ccc(C(=O)Nc2cnc(N3CCN(c4ccccn4)CC3)cn2)cc1 [Example 85, 4-Methoxy-N-(5-(4-(pyridin-2-yl)piperazin-1-yl)pyrazin-2-yl)benzamide]"
95,100,"CN(C)c1ccc(C(=O)Nc2cnc(N3CCN(c4ccccn4)CC3)cn2)cc1 [Example 86, 4-(Dimethylamino)-N-(5-(4-(pyridin-2-yl)piperazin-1-yl)pyrazin-2-yl)benzamide]"
88,98,"CN1CCN(c2ccc(C(=O)Nc3cnc(N4CCN(c5ccccn5)CC4)cn3)cc2)CC1 [Example 87, 4-(4-Methylpiperazin-1-yl)-N-(5-(4-(pyridin-2-yl)piperazin-1-yl)pyrazin-2-yl)benzamide]"
87,71,"O=C(Nc1cnc(N2CCN(c3ccccn3)CC2)cn1)c1ccc(N2CCOCC2)cc1 [Example 88, 4-Morpholino-N-(5-(4-(pyridin-2-yl)piperazin-1-yl)pyrazin-2-yl)benzamide]"
85,88,"Cc1ccc(C(=O)Nc2cnc(N3CCN(c4ccccn4)CC3)cn2)cc1 [Example 89, 4-Methyl-N-(5-(4-(pyridin-2-yl)piperazin-1-yl)pyrazin-2-yl)benzamide]"

# The next lines start with the compound.
Compound,inhibition at 1 µM [1] [%],inhibition at 1 µM [2] [%]
"O=C(Nc1cnc(N2CCN(c3ccccn3)CC2)nc1)c1ccc(N2CCOCC2)cc1 [Example 63, 4-Morpholino-N-(2-(4-(pyridin-2-yl)piperazin-1-yl)pyrimidin-5-yl)benzamide]",95,94
"COc1ccc(C(=O)Nc2ccc(N3CCN(c4cc(C#N)ccn4)CC3)cc2)cc1 [Example 65, N-[4-[4-(4-Cyano-2-pyridyl)piperazin-1-yl]phenyl]-4-methoxy-benzamide]",100,99
"COc1ccc(C(=O)Nc2ccc(N3CCN(c4cccs4)CC3)cc2)cc1 [Example 66, 4-Methoxy-N-{4-[4-(thiophen-2-yl)piperazin-1-yl]phenyl}benzamide]",104,103
"COc1ccc(C(=O)Nc2ccc(N3CCN(c4cccnc4OC)CC3)cc2)cc1 [Example 67, 4-Methoxy-N-{4-[4-(2-methoxypyridin-3-yl)piperazin-1-yl]phenyl}benzamide]",94,88
"COc1ccc(C(=O)Nc2ccc(N3CCN(c4cccc(OC)n4)CC3)cc2)cc1 [Example 68, 4-Methoxy-N-{4-[4-(6-methoxypyridin-2-yl)piperazin-1-yl]phenyl}benzamide]",96,90
"COc1ccc(C(=O)Nc2ccc(N3CCN(c4ccccc4OC)CC3)cc2)cc1 [Example 69, 4-Methoxy-N-{4-[4-(2-methoxyphenyl)piperazin-1-yl]phenyl}benzamide]",89,86
"COc1ccc(C(=O)Nc2ccc(N3CCN(c4ccccc4C#N)CC3)cc2)cc1 [Example 70, N-{4-[4-(2-Cyanophenyl)piperazin-1-yl]phenyl}-4-methoxybenzamide]",84,64
"COc1ccc(C(=O)Nc2ccc(N3CCN(c4ccccc4F)CC3)cc2)cc1 [Example 71, N-{4-[4-(2-Fluorophenyl)piperazin-1-yl]phenyl}-4-methoxybenzamide]",101,100
"Cc1ccc(C(=O)Nc2cnc(N3CCN(c4ccccn4)CC3)nc2)nc1 [Example 75, 5-Methyl-N-(2-(4-(pyridin-2-yl)piperazin-1-yl)pyrimidin-5-yl)picolinamide]",95,95
"COc1ccc(C(=O)Nc2ccc(N3CCN(c4cccnc4)CC3)cc2)nc1 [Example 77, 5-Methoxy-N-(4-(4-(pyridin-3-yl)piperazin-1-yl)phenyl)picolinamide]",98,96
"COc1ccc(C(=O)Nc2ccc(N3CCN(c4cc(OC)ccn4)CC3)cc2)cc1 [Example 82, 4-Methoxy-N-[4-[4-(4-methoxy-2-pyridyl)piperazin-1-yl]phenyl]benzamide]",91,106
"COc1ccc(C(=O)Nc2ccc(N3CCN(c4ccncc4C)CC3)cc2)cc1 [Example 83, Acetic acid; 4-Methoxy-N-[4-[4-(3-methyl-4-pyridyl)piperazin-1-yl]phenyl]benzamide]",86,95

# Source: patent US11541132B2, “Radiolabeled compounds” (Hoffmann-La Roche Inc., priority 2017, dated 2023)
